From patent US10221129B2, “Inhibitors of human immunodeficiency virus replication” (ViiV HEALTHCARE UK (NO.5) LIMITED, priority 2015, dated 2019)

Tests used:
[1] = system: recombinant NL4-3 virus (nef section replaced with Renilla luciferase gene) in MT-2 cells; assay: HIV cell culture assay (antiviral activity, luciferase readout); format: cell-based; details: Renilla, NL43, MT-2 cells infected for 4-5 days with recombinant NL4-3 Renilla luciferase virus
Experimental: HIV cell culture assay—MT-2 cells, 293T cells and the proviral DNA clone of NL4-3 virus were obtained from the NIH AIDS Research and Reference Reagent Program. MT-2 cells were propagated in RPMI 1640 media supplemented with 10% heat inactivated fetal bovine serum (FBS), 100 jag/ml penicillin G and up to 100 units/mL streptomycin. The 293T cells were propagated in DMEM media supplemented with 10% heat inactivated FBS, 100 μg/mL penicillin G and 100 μg/mL streptomycin. A recombinant NL4-3 proviral clone, in which a section of the nef gene was replaced with the Renilla luciferase gene, was used to make the reference virus used in these studies. The recombinant virus was prepared through transfection of the recombinant NL4-3 proviral clone into 293T cells using Transit-293 Transfection Reagent from Mirus Bio LLC (Madison, Wis.). Supernatant was harvested after 2-3 days and the amount of virus present was titered in MT-2 cells using luciferase enzyme activity as a marker by measuring luciferase enzyme activity. Luciferase was quantitated using the EnduRen Live Cell Substrate from Promega (Madison, Wis.). Antiviral activities of compounds toward the recombinant virus were quantified by measuring luciferase activity in MT-2 cells infected for 4-5 days with the recombinant virus in the presence of serial dilutions of the compound.
(Johnson V A, Byington R T. Infectivity Assay. In Techniques in HIV Research. ed. Aldovini A, Walker B D. 71-76. New York: Stockton Press. 1990).

[2] = Compound cytotoxicity, XTT-based colorimetric assay; format: cell-based; details: human, uninfected MT2 cells, day 4, XTT
Experimental: Compound cytotoxicity and the corresponding CC50 values were determined using the same protocol as described in the antiviral assay except that uninfected cells were used. Cytotoxicity was assessed on day 4 in uninfected MT2 cells by using a XTT (2,3-bis[2-Methoxy-4-nitro-5-sulfophenyl]-2H-tetrazolium-5-carboxyanilide inner salt)-based colorimetric assay (Sigma-Aldrich, St Louis, Mo.).

Structure (SMILES) | EC50 [1] [nM] | CC50 at 4 days [2] [nM]
CN(C(=O)[C@H](Cc1cc(F)cc(F)c1)NC(=O)NS(=O)(=O)N1CCc2cccnc21)c1ccc(OC(F)F)cc1 [BB-35] | 10 | 97200
COCCN(C)S(=O)(=O)NC(=O)N[C@@H](Cc1cc(F)cc(F)c1)C(=O)N(C)c1ccc2scnc2c1 [CA-149] | 80 | > 100000
COc1ccc(N(C)C(=O)[C@H](Cc2ccccc2)NC(=O)NS(=O)(=O)n2ccc3c(F)c(F)c(F)c(F)c32)cc1 [JB-78] | 370 | > 33300
CN(C(=O)[C@H](Cc1cc(F)cc(F)c1)NC(=O)NS(=O)(=O)N1CCc2cccnc21)c1ccc(C(N)=O)cc1 [BB-5] | 4910 | > 100000
Cc1ccc(N(C)C(=O)[C@H](Cc2cc(F)cc(F)c2)NC(=O)NS(=O)(=O)N2CCc3cccnc32)nc1 [GW-4] | 220 | > 100000
CC(C)CCNS(=O)(=O)NC(=O)N[C@@H](Cc1cc(F)cc(F)c1)C(=O)N(C)c1ccc2scnc2c1 [CA-145] | 120 | > 100000
COc1ccc(N(C)C(=O)[C@H](Cc2ccccc2)NC(=O)NS(=O)(=O)Nc2ccc(C(C)C)cc2)cc1 [CA-21] | 80 | > 100000
CCCNS(=O)(=O)NC(=O)N[C@@H](Cc1cc(F)cc(F)c1)C(=O)N(C)c1ccc2scnc2c1 [CA-146] | 50 | > 100000
CCN(CC)S(=O)(=O)NC(=O)N[C@@H](Cc1cc(F)cc(F)c1)C(=O)N(C)c1ccc(OC(F)F)cc1 [BB-36] | 160 | > 100000
CC(C)CNS(=O)(=O)NC(=O)N[C@@H](Cc1cc(F)cc(F)c1)C(=O)N(C)c1ccc2scnc2c1 [CA-144] | 40 | > 100000
COc1ccc(N(C)C(=O)[C@H](Cc2ccccc2)NC(=O)NS(=O)(=O)NC(C)c2cccnc2)cc1 (some centres unmarked) [JB-65] | 620 | > 100000
COc1ccc(N(C)C(=O)[C@H](Cc2ccccc2)NC(=O)NS(=O)(=O)Nc2ccc(NC(=O)N(C)C)cc2)cc1 [JB-52] | 5940 | > 100000
CCNS(=O)(=O)NC(=O)N[C@@H](Cc1cc(F)cc(F)c1)C(=O)N(C)c1ccc2scnc2c1 [CA-124] | 110 | > 100000
CCOc1ccc(N(CC)C(=O)[C@H](Cc2ccccc2)NC(=O)NS(=O)(=O)N2CCc3ccccc32)cc1 [JB-73] | 50 | > 33300
COC(=O)Nc1ccc(NS(=O)(=O)NC(=O)N[C@@H](Cc2ccccc2)C(=O)N(C)c2ccc(OC)cc2)cc1 [JB-62] | 290 | > 100000
COc1ccc(N(C)C(=O)[C@H](Cc2ccccc2)NC(=O)NS(=O)(=O)N2CC(c3ccccc3)C2)cc1 [JB-8] | 2690 | > 100000
COc1ccc(N(C)C(=O)[C@H](Cc2ccccc2)NC(=O)NS(=O)(=O)Nc2cccc3ccccc23)cc1 [CA-4] | 410 | 89400
CCOc1ccc(N(CC)C(=O)[C@H](Cc2ccccc2)NC(=O)NS(=O)(=O)N2CCc3cc(Cl)cc(Cl)c32)cc1 [JB-76] | 8750 | > 33300
CN(C(=O)[C@H](Cc1cc(F)cc(F)c1)NC(=O)NS(=O)(=O)N1CCOCC1)c1ccc2scnc2c1 [VN-23] | 170 | > 100000
O=C(N[C@@H](Cc1cc(F)cc(F)c1)C(=O)N(CCOCc1ccccc1)c1ccc2scnc2c1)NS(=O)(=O)N1CCc2cccnc21 [BB-34] | 40 | 70600
CN(C(=O)[C@H](Cc1cc(F)cc(F)c1)NC(=O)NS(=O)(=O)Nc1ccccc1)c1ccc2scnc2c1 [CA-115] | 60 | > 100000
CN(C(=O)[C@H](Cc1cc(F)cc(F)c1)NC(=O)NS(=O)(=O)Nc1ccc(C(C)(C)C)cc1)c1ccc2scnc2c1 [ZY-11] | 80 | 66900
COc1ccc(N(C)C(=O)[C@H](Cc2ccccc2)NC(=O)NS(=O)(=O)NCC(=O)N2CCN(c3ccccc3)CC2)cc1 [CA-58] | 7450 | > 100000
CN(C(=O)[C@H](Cc1cc(F)cc(F)c1)NC(=O)NS(=O)(=O)N1CCC(O)CC1)c1ccc2scnc2c1 [CA-155] | 200 | > 100000
CN(C(=O)[C@H](Cc1cc(F)cc(F)c1)NC(=O)NS(=O)(=O)N(C)C)c1ccc2scnc2c1 [VN-16] | 30 | > 100000
CN(C(=O)[C@H](Cc1cc(F)cc(F)c1)NC(=O)NS(N)(=O)=O)c1ccc2scnc2c1 [VN-25] | 150 | 79600

Structure (SMILES) | EC50 [1] [nM] | CC50 at 4 days [2] [nM]
CN(C(=O)[C@H](Cc1cc(F)cc(F)c1)NC(=O)NS(=O)(=O)N1CCCC1=O)c1ccc2scnc2c1 [BB-33] | 450 | > 100000
COc1ccc(N(C)C(=O)[C@H](Cc2ccccc2)NC(=O)NS(=O)(=O)NCc2nccs2)cc1 [JB-43] | 760 | > 100000
COc1ccc(N(C)C(=O)[C@H](Cc2ccccc2)NC(=O)NS(=O)(=O)N2CCc3ccccc3C2)cc1 [JB-7] | 200 | > 100000
COc1ccc(N(C)C(=O)[C@H](Cc2ccccc2)NC(=O)NS(=O)(=O)Nc2ccc(-c3cnco3)cc2)cc1 [CA-38] | 250 | > 100000
COc1ccc(N(C)C(=O)[C@H](Cc2ccccc2)NC(=O)NS(=O)(=O)Nc2ccc(NC(C)=O)cc2)cc1 [CA-17] | 1940 | > 100000
COc1ccc(N(C)C(=O)[C@H](Cc2ccccc2)NC(=O)NS(=O)(=O)N2Cc3ccncc3C2)cc1 [JB-44] | 1750 | > 100000
COc1ccc(N(C)C(=O)[C@H](Cc2ccccc2)NC(=O)NS(=O)(=O)Nc2cccc(Oc3ccccc3)c2)cc1 [CA-36] | 200 | > 33300
COc1ccc(N(C)C(=O)[C@H](Cc2ccccc2)NC(=O)NS(=O)(=O)Nc2ccc(OC(F)(F)F)cc2)cc1 [CA-34] | 180 | > 33300
CCN(CC)S(=O)(=O)NC(=O)N[C@@H](Cc1cc(F)cc(F)c1)C(=O)N(C)c1ccc2scnc2c1 [VN-21] | 20 | > 33300
COc1ccc(N(C)C(=O)[C@H](Cc2ccccc2)NC(=O)NS(=O)(=O)Nc2ccc(Cc3ccncc3)cc2)cc1 [CA-39] | 330 | > 100000
COc1ccc(N(C)C(=O)[C@H](Cc2ccccc2)NC(=O)NS(=O)(=O)Nc2ccc(C#N)cc2)cc1 [CA-15] | 70 | > 100000
COc1ccc(N(C)C(=O)[C@H](Cc2ccccc2)NC(=O)NS(=O)(=O)Nc2ccccc2C)cc1 [JB-17] | 80 | > 100000
CC(C)NS(=O)(=O)NC(=O)N[C@@H](Cc1cc(F)cc(F)c1)C(=O)N(C)c1ccc2scnc2c1 [CA-136] | 60 | > 100000
CN(C(=O)[C@H](Cc1cc(F)cc(F)c1)NC(=O)NS(=O)(=O)N1CCc2cccnc21)c1ccc2cncnc2c1 [BB-30] | 260 | > 100000
CN(C(=O)[C@H](Cc1cc(F)cc(F)c1)NC(=O)NS(=O)(=O)N1CCc2cccnc21)c1ccc2scnc2c1F [GW-22] | 10 | > 100000
CCN(C)S(=O)(=O)NC(=O)N[C@@H](Cc1cc(F)cc(F)c1)C(=O)N(C)c1ccc2scnc2c1 [CA-154] | 30 | > 50000
COc1ccc(N(C)C(=O)[C@H](Cc2ccccc2)NC(=O)NS(=O)(=O)N2CCc3cc(OC)cc(C)c32)cc1 [CA-56] | 1310 | > 100000
COc1ccc(N(C)C(=O)[C@H](Cc2ccccc2)NC(=O)NS(=O)(=O)Nc2ccccc2Cl)cc1 [JB-5] | 100 | > 100000
COc1ccc(N(C)C(=O)[C@H](Cc2ccccc2)NC(=O)NS(=O)(=O)N(C)c2ccc(OC)cc2)cc1 [JB-28] | 210 | > 100000
CN(C(=O)[C@H](Cc1cc(F)cc(F)c1)NC(=O)N(C)S(=O)(=O)N1CCc2cccnc21)c1ccc2scnc2c1 [BB-25] | 530 | > 33300
Cc1ncc(N(C)C(=O)[C@H](Cc2cc(F)cc(F)c2)NC(=O)NS(=O)(=O)N2CCc3cccnc32)cc1Cl [GW-15] | 970 | 5100
COc1cncc(N(C)C(=O)[C@H](Cc2cc(F)cc(F)c2)NC(=O)NS(=O)(=O)N2CCc3cccnc32)c1 [BB-19] | 3270 | > 100000
Cc1cc(N(C)C(=O)[C@H](Cc2ccccc2)NC(=O)NS(=O)(=O)N2CCc3cccnc32)ccc1Cl [BB-6] | 340 | > 33300
COc1ccc(N(C)C(=O)[C@H](Cc2ccccc2)NC(=O)NS(=O)(=O)Nc2ccc(Cl)cc2Cl)cc1 [CA-50] | 110 | > 100000
CN(C(=O)[C@H](Cc1cc(F)cc(F)c1)NC(=O)NS(=O)(=O)N1CCc2ccncc21)c1ccc2scnc2c1 [BB-9] | 410 | > 100000
COc1ccc(N(C)C(=O)[C@H](Cc2ccccc2)NC(=O)NS(=O)(=O)N(C)c2ccccc2C)cc1 [JB-18] | 560 | > 100000
